Measurements taken from US8952024B2, “Herbicidal pyrimidone derivatives” (E I du Pont de Nemours and Company, priority 2009, dated 2015).

Tests used:
Format in all cases: in vivo
[1] = tested on: chickweed (Stellaria media); assay: Test B postemergence plant response; settings: Postemergence
Outline: (§1)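 Plants at the 1- to 4-leaf stage (2 to 18 cm tall), grown in pots of peat moss/vermiculite medium with wetting agent and starter nutrients, received postemergence applications of test chemicals. After 13 to 15 days in a greenhouse, injury was rated visually against untreated controls on a 0 (no effect) to 100 (complete control) scale.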

[2] = tested on: windgrass (Apera spica-venti); assay: Test B postemergence plant response; settings: Postemergence
Outline: as §1

[3] = tested on: canarygrass (Phalaris minor); assay: Test B postemergence plant response; settings: Postemergence
Outline: as §1

[4] = tested on: morningglory (Ipomoea spp.); assay: Test A pre-/postemergence plant response; settings: for Morningglory plant response rating: visual injury, 0 to 100 scale (0 no effect, 100 complete control), approx. ten days
Outline: (§2)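 Injury was scored visually after roughly ten days against untreated controls, 0 = no effect, 100 = complete control. Test chemicals in a surfactant-containing non-phytotoxic solvent were sprayed either onto soil preemergence or onto one- to two-leaf, 2–10 cm plants postemergence.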

[5] = tested on: velvetleaf (Abutilon theophrasti); assay: Test A pre-/postemergence plant response; settings: for Velvetleaf plant response rating: visual injury, 0 to 100 scale (0 no effect, 100 complete control), approx. ten days
Outline: as §2

corn (Zea mays) = assay: Test A pre-/postemergence plant response; settings: for Corn plant response rating: visual injury, 0 to 100 scale (0 no effect, 100 complete control), approx. ten days
Outline: as §2

[6] = tested on: pigweed (Amaranthus retroflexus); assay: Test A pre-/postemergence plant response; settings: for Pigweed plant response rating: visual injury, 0 to 100 scale (0 no effect, 100 complete control), approx. ten days
Outline: as §2

[7] = tested on: barnyardgrass (Echinochloa crus-galli); assay: Test A pre-/postemergence plant response; settings: for Barnyardgrass plant response rating: visual injury, 0 to 100 scale (0 no effect, 100 complete control), approx. ten days
Outline: as §2

[8] = tested on: giant foxtail (Setaria faberii); assay: Test A pre-/postemergence plant response; settings: for Foxtail, Giant plant response rating: visual injury, 0 to 100 scale (0 no effect, 100 complete control), approx. ten days
Outline: as §2

[9] = tested on: wheat (Triticum aestivum); assay: Test A pre-/postemergence plant response; settings: for Wheat plant response rating: visual injury, 0 to 100 scale (0 no effect, 100 complete control), approx. ten days
Outline: as §2

[10] = tested on: large crabgrass (Digitaria sanguinalis); assay: Test A pre-/postemergence plant response; settings: for Crabgrass, Large plant response rating: visual injury, 0 to 100 scale (0 no effect, 100 complete control), approx. ten days
Outline: as §2

[11] = tested on: ducksalad (Heteranthera limosa); assay: Test B flooded paddy test; settings: for Plant response rating, Flood, Ducksalad: 250 g ai/ha, flooded paddy test, visual rating on 0 to 100 scale (0 no effect, 100 complete control) after 13 to 15 days; for Plant response rating, Ducksalad: Flood (flooded paddy test), 13 to 15 days
Outline: (§3)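 Seedlings reaching 2 leaves are flooded 3 cm deep; test material is delivered to that water, which stays at the same depth. Plants remain in a greenhouse 13–15 days and are then scored by eye versus controls from 0 to 100.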

rice (Oryza sativa) = assay: Test B flooded paddy test; settings: for Plant response rating, Flood, Rice: 250 g ai/ha, flooded paddy test, visual rating on 0 to 100 scale (0 no effect, 100 complete control) after 13 to 15 days; for Plant response rating, Rice: Flood (flooded paddy test), 13 to 15 days
Outline: as §3

[12] = 31 g ai/ha, 0 to 100 scale (0 no effect, 100 complete control)
[13] = 62 g ai/ha, scale 0 to 100 (0 no effect, 100 complete control)
[14] = 125 g ai/ha, scale 0 to 100 (0 no effect, 100 complete control)
[15] = 250 g ai/ha, scale 0 to 100 (0 no effect, 100 complete control), 13 to 15 days
[16] = Postemergence, 125 g ai/ha, 0 to 100 scale where 0 is no effect and 100 is complete control
[17] = Preemergence, 125 g ai/ha, 0 to 100 scale, 0 = no effect, 100 = complete control
[18] = Preemergence, 500 g ai/ha, 0 to 100 scale, 0 = no effect, 100 = complete control
[19] = 62 g ai/ha, scale of 0 to 100 where 0 is no effect and 100 is complete control
[20] = 125 g ai/ha, scale 0 to 100, 0 is no effect, 100 is complete control
[21] = Flood, 31 g ai/ha, scale 0 to 100 (0 no effect, 100 complete control)

COCCn1c(-c2cccc(C)c2)ncc(C(=O)C2=C(O)C3CCC(C3)C2=O)c1=O (centres unmarked) [Compound 233]
Plant response rating, Chickweed [1, 12]: 90
Plant response rating, Chickweed [1, 13]: 95
Plant response rating, Chickweed [1, 14]: 100
Plant response rating, Chickweed [1, 15]: 100
Plant response rating, Windgrass [2, 12]: 50
Plant response rating, Windgrass [2, 13]: 55
Plant response rating, Windgrass [2, 15]: 60
Plant response rating, Canarygrass [3, 12]: 0
Plant response rating, Canarygrass [3, 13]: 5
Plant response rating, Canarygrass [3, 14]: 10
Plant response rating, Canarygrass [3, 15]: 20
Plant response rating, Morningglory [4, 16]: 100
Morningglory plant response rating ([4]; Postemergence, 500 g ai/ha): 100
Plant response rating, Morningglory [4, 17]: 50
Plant response rating, Morningglory [4, 18]: 90
Plant response rating, Velvetleaf [5, 16]: 100
Velvetleaf plant response rating ([5]; Postemergence, 500 g ai/ha): 100
Plant response rating, Velvetleaf [5, 17]: 60
Plant response rating, Velvetleaf [5, 18]: 80
Plant response rating, Corn (corn (Zea mays); [16]): 60
Corn plant response rating (corn (Zea mays); Postemergence, 500 g ai/ha): 80
Plant response rating, Corn (corn (Zea mays); [17]): 0
Plant response rating, Corn (corn (Zea mays); [18]): 0
Plant response rating, Pigweed [6, 16]: 100
Pigweed plant response rating ([6]; Postemergence, 500 g ai/ha): 100
Plant response rating, Pigweed [6, 17]: 70
Plant response rating, Pigweed [6, 18]: 100
Plant response rating, Barnyardgrass [7, 16]: 90
Barnyardgrass plant response rating ([7]; Postemergence, 500 g ai/ha): 90
Plant response rating, Barnyardgrass [7, 17]: 30
Plant response rating, Barnyardgrass [7, 18]: 100
Plant response rating, Foxtail, Giant [8, 16]: 90
Foxtail, Giant plant response rating ([8]; Postemergence, 500 g ai/ha): 90
Plant response rating, Foxtail, Giant [8, 17]: 20
Plant response rating, Foxtail, Giant [8, 18]: 80
Plant response rating, Wheat [9, 16]: 20
Wheat plant response rating ([9]; Postemergence, 500 g ai/ha): 60
Plant response rating, Wheat [9, 17]: 0
Plant response rating, Wheat [9, 18]: 40
Plant response rating, Crabgrass, Large [10, 16]: 90
Crabgrass, Large plant response rating ([10]; Postemergence, 500 g ai/ha): 90
Plant response rating, Crabgrass, Large [10, 17]: 40
Plant response rating, Crabgrass, Large [10, 18]: 100
Plant response rating, Flood, Ducksalad [11]: 100
Plant response rating, Ducksalad [11, 19]: 100
Plant response rating, Flood, Rice (rice (Oryza sativa)): 50
Plant response rating, Rice (rice (Oryza sativa); [19]): 25

O=C1CCCC(O)=C1C(=O)c1cnc(-c2cccc(F)c2)n(C2CCCCC2)c1=O [Compound 187]
Plant response rating, Chickweed [1, 12]: 100
Plant response rating, Chickweed [1, 14]: 100
Plant response rating, Chickweed [1, 15]: 100
Plant response rating, Windgrass [2, 12]: 10
Plant response rating, Windgrass [2, 14]: 65
Plant response rating, Windgrass [2, 15]: 80
Plant response rating, Canarygrass [3, 12]: 10
Plant response rating, Canarygrass [3, 14]: 55
Plant response rating, Canarygrass [3, 15]: 60
Plant response rating, Morningglory [4, 16]: 100
Morningglory plant response rating ([4]; Postemergence, 500 g ai/ha): 100
Plant response rating, Morningglory [4, 17]: 80
Plant response rating, Morningglory [4, 18]: 90
Plant response rating, Velvetleaf [5, 16]: 100
Velvetleaf plant response rating ([5]; Postemergence, 500 g ai/ha): 100
Plant response rating, Velvetleaf [5, 17]: 70
Plant response rating, Velvetleaf [5, 18]: 100
Plant response rating, Corn (corn (Zea mays); [16]): 0
Corn plant response rating (corn (Zea mays); Postemergence, 500 g ai/ha): 50
Plant response rating, Corn (corn (Zea mays); [17]): 0
Plant response rating, Corn (corn (Zea mays); [18]): 0
Plant response rating, Pigweed [6, 16]: 100
Pigweed plant response rating ([6]; Postemergence, 500 g ai/ha): 100
Plant response rating, Pigweed [6, 17]: 60
Plant response rating, Pigweed [6, 18]: 70
Plant response rating, Barnyardgrass [7, 16]: 90
Barnyardgrass plant response rating ([7]; Postemergence, 500 g ai/ha): 100
Plant response rating, Barnyardgrass [7, 17]: 20
Plant response rating, Barnyardgrass [7, 18]: 90
Plant response rating, Foxtail, Giant [8, 16]: 80
Foxtail, Giant plant response rating ([8]; Postemergence, 500 g ai/ha): 90
Plant response rating, Foxtail, Giant [8, 17]: 30
Plant response rating, Foxtail, Giant [8, 18]: 90
Plant response rating, Wheat [9, 16]: 0
Wheat plant response rating ([9]; Postemergence, 500 g ai/ha): 0
Plant response rating, Wheat [9, 17]: 0
Plant response rating, Wheat [9, 18]: 0
Plant response rating, Crabgrass, Large [10, 16]: 90
Crabgrass, Large plant response rating ([10]; Postemergence, 500 g ai/ha): 100
Plant response rating, Crabgrass, Large [10, 17]: 30
Plant response rating, Crabgrass, Large [10, 18]: 90
Plant response rating, Flood, Ducksalad [11]: 100
Plant response rating, Ducksalad [11, 19]: 95
Plant response rating, Flood, Rice (rice (Oryza sativa)): 70
Plant response rating, Rice (rice (Oryza sativa); [19]): 15

COCCn1c(-c2cccc(F)c2)ncc(C(=O)C2=C(O)C3CCC(C3)C2=O)c1=O (centres unmarked) [Compound 235]
Plant response rating, Chickweed [1, 12]: 98
Plant response rating, Chickweed [1, 13]: 100
Plant response rating, Chickweed [1, 14]: 100
Plant response rating, Chickweed [1, 15]: 100
Plant response rating, Windgrass [2, 12]: 85
Plant response rating, Windgrass [2, 13]: 95
Plant response rating, Windgrass [2, 15]: 98
Plant response rating, Canarygrass [3, 12]: 20
Plant response rating, Canarygrass [3, 13]: 30
Plant response rating, Canarygrass [3, 14]: 30
Plant response rating, Canarygrass [3, 15]: 30
Plant response rating, Morningglory [4, 16]: 100
Morningglory plant response rating ([4]; Postemergence, 500 g ai/ha): 100
Plant response rating, Morningglory [4, 17]: 80
Plant response rating, Morningglory [4, 18]: 90
Plant response rating, Velvetleaf [5, 16]: 100
Velvetleaf plant response rating ([5]; Postemergence, 500 g ai/ha): 100
Plant response rating, Velvetleaf [5, 17]: 100
Plant response rating, Velvetleaf [5, 18]: 100
Plant response rating, Corn (corn (Zea mays); [16]): 80
Corn plant response rating (corn (Zea mays); Postemergence, 500 g ai/ha): 90
Plant response rating, Corn (corn (Zea mays); [17]): 20
Plant response rating, Corn (corn (Zea mays); [18]): 70
Plant response rating, Pigweed [6, 16]: 100
Pigweed plant response rating ([6]; Postemergence, 500 g ai/ha): 100
Plant response rating, Pigweed [6, 17]: 90
Plant response rating, Pigweed [6, 18]: 90
Plant response rating, Barnyardgrass [7, 16]: 90
Barnyardgrass plant response rating ([7]; Postemergence, 500 g ai/ha): 100
Plant response rating, Barnyardgrass [7, 17]: 90
Plant response rating, Barnyardgrass [7, 18]: 100
Plant response rating, Foxtail, Giant [8, 16]: 90
Foxtail, Giant plant response rating ([8]; Postemergence, 500 g ai/ha): 100
Plant response rating, Foxtail, Giant [8, 17]: 70
Plant response rating, Foxtail, Giant [8, 18]: 90
Plant response rating, Wheat [9, 16]: 50
Wheat plant response rating ([9]; Postemergence, 500 g ai/ha): 80
Plant response rating, Wheat [9, 17]: 10
Plant response rating, Wheat [9, 18]: 40
Plant response rating, Crabgrass, Large [10, 16]: 100
Crabgrass, Large plant response rating ([10]; Postemergence, 500 g ai/ha): 100
Plant response rating, Crabgrass, Large [10, 17]: 100
Plant response rating, Crabgrass, Large [10, 18]: 100
Plant response rating, Flood, Ducksalad [11]: 100
Plant response rating, Ducksalad [11, 19]: 95
Plant response rating, Ducksalad [11, 20]: 100
Ducksalad plant response rating [11, 21]: 95
Plant response rating, Flood, Rice (rice (Oryza sativa)): 55
Plant response rating, Rice (rice (Oryza sativa); [19]): 0
Plant response rating, Rice (rice (Oryza sativa); [20]): 45
Rice plant response rating (rice (Oryza sativa); [21]): 0
